These are literature values, as cited in patent US20240264148A1, “SYSTEM AND METHOD OF IDENTIFYING BIOMARKERS FOR CHEMO-RESISTANCE IN CANCER AND IDENTIFYING TARGETS THAT CAN REVERSE CHEMO-RESISTANCE IN CANCER” (OROC, priority 2019, published 2024).

The series relates to recurrent ovarian cancer. The note with it: patients.

Each structure is given as a SMILES string.

As for `Cc1nc(Nc2ncc(C(=O)Nc3c(C)cccc3Cl)s2)cc(N2CCN(CCO)CC2)n1` [Dasatinib], the safety and tolerability result is on record as “safe to use as a drug with good tolerability”.
